The record followed here is PubChem BioAssay AID1259408 (Genetic Toxicology Data Bank (GENE-TOX), 2018).

The source made the active and inactive calls. How the calls were made is not given here.

The test system of the series is GENE-TOX genotoxicity assays, various organisms and cells. Nature of the series: GENE-TOX mutagenicity studies. The source says:
GENE-TOX provides genetic toxicology (mutagenicity) test data from expert peer review of open scientific literature for more than 3,000 chemicals from the United States Environmental Protection Agency (EPA). GENE-TOX was established to select assay systems for evaluation, review data in the scientific literature, and recommend proper testing protocols and evaluation procedures for these systems.
GENE-TOX covers the years 1991 - 1998. It is no longer updated.
This is an archive assay for GENE-TOX mutagenicity studies.

Setting [1] is: Species/Cell Type: Saccharomyces cerevisiae, Assay Type: Mitotic recombination or gene conversion, Assay Code: YEH-, Evaluation Type: Evaluation A (Pre-1980).
Where [2] appears, read: Species/Cell Type: Escherichia coli polA (W3119 vs P3478), Assay Type: Rec-assay, DNA effects (bacterial DNA repair), Assay Code: RE1T, Evaluation Type: Evaluation A (Pre-1980).
[3] abbreviates: Species/Cell Type: Drosophila melanogaster, Assay Type: Sex-linked recessive lethal gene mutation, Assay Code: SRL+, Evaluation Type: Evaluation A (Pre-1980).
Where [4] appears, read: Species/Cell Type: Hordeum vulgare (barley), Assay Type: Chromosome aberrations, Assay Code: HOC+D, Dose Response: With dose response, Evaluation Type: Evaluation A (Pre-1980).
Where [5] appears, read: Species/Cell Type: Mammalian polychromatic erythrocytes, Assay Type: Micronucleus test, chromosome aberrations, Assay Code: MNT+, Evaluation Type: Evaluation B (Post-1980).
[6] abbreviates: Species/Cell Type: Nonhuman, Assay Type: Sister-chromatid exchange (SCE) in vitro, Assay Code: SC2+, Evaluation Type: Evaluation B (Post-1980).
[7] abbreviates: Species/Cell Type: Salmonella typhimurium (one or more of the five standard strains: TA98, TA100, TA1535, TA1537, and TA1538), Assay Type: Histidine reverse gene mutation, Ames assay, Assay Code: SAL+, Evaluation Type: Evaluation A (Pre-1980).
Setting [8] is: Species/Cell Type: Salmonella typhimurium (one or more of the five standard strains: TA98, TA100, TA1535, TA1537, and TA1538), Assay Type: Histidine reverse gene mutation, Ames assay, Assay Code: SALT, Evaluation Type: Evaluation A (Pre-1980).
[9] abbreviates: Species/Cell Type: Salmonella typhimurium (one or more of the five standard strains: TA98, TA100, TA1535, TA1537, and TA1538), Assay Type: Histidine reverse gene mutation, Ames assay, Assay Code: SAL+*, Activation: With metabolic activation, Evaluation Type: Evaluation A (Pre-1980).
The mark [10] stands for this setting: Species/Cell Type: Bacillus subtilis (H17 vs M45), Assay Type: Rec-assay, spot test, DNA effects (bacterial DNA repair), Assay Code: REW-, Evaluation Type: Evaluation A (Pre-1980).

For `Oc1c(Cl)c(Cl)c(Cl)c(Cl)c1Cl`, the mutagenic call by setting is: (Species/Cell Type: Bacillus subtilis (H17 vs M45), Assay Type: Rec-assay, spot test, DNA effects (bacterial DNA repair), Assay Code: REW+, Evaluation Type: Evaluation A (Pre-1980)) “active; positive”; (Species/Cell Type: Drosophila melanogaster, Assay Type: Sex-linked recessive lethal gene mutation, Assay Code: SRLT, Evaluation Type: Evaluation A (Pre-1980)) “no conclusion”; (Species/Cell Type: Mouse, Sex: Female, Assay Type: Spot test, gene mutation, Assay Code: MST-, Evaluation Type: Evaluation A (Pre-1980)) “inactive; negative”; (Species/Cell Type: Saccharomyces cerevisiae, Assay Type: Forward gene mutation, Assay Code: YEF+, Evaluation Type: Evaluation A (Pre-1980)) “active; positive”; (Species/Cell Type: Saccharomyces cerevisiae, Assay Type: Mitotic recombination or gene conversion, Assay Code: YEC+, Evaluation Type: Evaluation A (Pre-1980)) “active; positive”; under setting [1], “inactive; negative”. Further, the mutagenic call (Species/Cell Type: Salmonella typhimurium (one or more of the five standard strains: TA98, TA100, TA1535, TA1537, and TA1538), Assay Type: Histidine reverse gene mutation, Ames assay, Assay Code: SAL-, Evaluation Type: Evaluation A (Pre-1980)) was “inactive; negative”; the mutagenic call (Species/Cell Type: Salmonella typhimurium, Assay Type: Forward and reverse gene mutation, host-mediated assay, Assay Code: HMA-, Evaluation Type: Evaluation A (Pre-1980)) is “inactive; negative”; the mutagenic call (Species/Cell Type: Syrian hamster embryo (SA7/SHE) cells, Assay Type: Cell transformation, viral enhanced, Assay Code: CT7+, Evaluation Type: Evaluation A (Pre-1980)) was “active; positive”.
Take `CN(CCCCC(=O)OC[C@H](N)C(=O)O)N=O`: the mutagenic call by setting is: (Species/Cell Type: Escherichia coli polA (W3110 vs P3478), Assay Type: Rec-assay, DNA effects (bacterial DNA repair), Assay Code: RE2T, Evaluation Type: Evaluation A (Pre-1980)) “no conclusion”; under setting [2], “no conclusion”.
In the case of `CC/C(=C(\c1ccccc1)c1ccc(OCCN(C)C)cc1)c1ccccc1`, for the setting “Species/Cell Type: Human, Sex: Male, Assay Type: Sperm morphology, Assay Code: SPHT, Evaluation Type: Evaluation A (Pre-1980)”, the mutagenic call was “no conclusion”.
Regarding `CS(=O)(=O)OCCCCOS(C)(=O)=O`, the mutagenic call was “active; positive” (Species/Cell Type: Arabidopsis species, Assay Type: Gene mutation, Assay Code: ARM+, Evaluation Type: Evaluation A (Pre-1980)); “active; positive” (Species/Cell Type: Chinese hamster ovary (CHO) cells, Assay Type: Forward gene mutation at the HPRT locus, Assay Code: CHO+, Evaluation Type: Evaluation B (Post-1980)); “active; positive” under setting [3]; “active; positive” (Species/Cell Type: Escherichia coli polA (W3119 vs P3478), Assay Type: Rec-assay, DNA effects (bacterial DNA repair), Assay Code: RE1+, Evaluation Type: Evaluation A (Pre-1980)); “active; positive” under setting [4]; “active; positive” (Species/Cell Type: Human lymphocytes or leukocytes, Assay Type: Chromosome aberrations in vitro, Assay Code: CY7+D, Dose Response: With dose response, Evaluation Type: Evaluation A (Pre-1980)). Also, the mutagenic call is “active; positive” (Species/Cell Type: Human lymphocytes, Assay Type: Sister-chromatid exchange (SCE) in vitro, Assay Code: SCL+D, Dose Response: With dose response, Evaluation Type: Evaluation A (Pre-1980)); “active; positive” (Species/Cell Type: Human lymphocytes, Assay Type: Sister-chromatid exchange (SCE) in vivo, Assay Code: SCY+, Evaluation Type: Evaluation B (Post-1980)); “active; positive” (Species/Cell Type: Human, Assay Type: Sister-chromatid exchange (SCE) in vitro, Assay Code: SC1+D, Dose Response: With dose response, Evaluation Type: Evaluation A (Pre-1980)); “no conclusion” (Species/Cell Type: Mammalian germ cells, Sex: Male, Assay Type: Chromosome aberrations in vivo, Assay Code: CY9T, Evaluation Type: Evaluation A (Pre-1980)); “active; positive” under setting [5]; “no conclusion” (Species/Cell Type: Mammalian polychromatic erythrocytes, Assay Type: Micronucleus test, chromosome aberrations, Assay Code: MNTT, Evaluation Type: Evaluation A (Pre-1980)). Moreover, the mutagenic call is, setting by setting: (Species/Cell Type: Mouse lymphoma (L5178Y) cells, Assay Type: Forward gene mutation at the thymidine kinase (TK) locus, chromosome aberrations, Assay Code: L51+, Evaluation Type: Evaluation A (Pre-1980)) “active; positive”; (Species/Cell Type: Mouse, Sex: Male, Assay Type: Sperm morphology, Assay Code: SPI+, Evaluation Type: Evaluation A (Pre-1980)) “active; positive”; (Species/Cell Type: Neurospora crassa, Assay Type: Forward gene mutation, Assay Code: NEF+, Evaluation Type: Evaluation A (Pre-1980)) “active; positive”; (Species/Cell Type: Nonhuman bone marrow, Assay Type: Chromosome aberrations, in vivo, Assay Code: CY#+D, Dose Response: With dose response, Evaluation Type: Evaluation A (Pre-1980)) “active; positive”; under setting [6], “active; positive”; (Species/Cell Type: Rabbit, Sex: Male, Assay Type: Sperm morphology, Assay Code: SPR+, Evaluation Type: Evaluation A (Pre-1980)) “active; positive”. Where the note is “Species/Cell Type: Rodents, Sex: Male, Assay Type: Dominant lethal test, Assay Code: DLT+, Evaluation Type: Evaluation A (Pre-1980)”, the mutagenic call was “active; positive”. Also, the call (Species/Cell Type: Nonhuman, Assay Type: In vivo carcinogenicity studies, Assay Code: CCGT, Evaluation Type: Evaluation A (Pre-1980)) is on record as “no conclusion”.
`c1ccc2cc(C3CO3)ccc2c1` (configuration not stated): under setting [7], the mutagenic call was “active; positive”.
For `O=C1C=C(N2CC2)C(=O)C=C1N1CC1`, under setting [3], the mutagenic call was “active; positive”.
With `Cc1ccc(OC(=O)N(C)N=O)cc1C`, the mutagenic call runs as follows: (Species/Cell Type: Bacillus subtilis (H17 vs M45T), Assay Type: Rec-assay, spot test, DNA effects (bacterial DNA repair), Assay Code: REX+, Evaluation Type: Evaluation A (Pre-1980)) “active; positive”; (Species/Cell Type: Escherichia coli WP2, Assay Type: Tryptophan reverse gene mutation, Assay Code: WP2+, Evaluation Type: Evaluation A (Pre-1980)) “active; positive”.
Take `NC[C@@H]1CC[C@@H](N)[C@@H](O[C@H]2[C@H](O)[C@@H](O[C@H]3O[C@H](CO)[C@@H](O)[C@H](N)[C@H]3O)[C@H](N)C[C@@H]2N)O1`: the mutagenic call under setting [1] was “inactive; negative”.
With `CCCCOc1ccc(CC(=O)NO)cc1`, the mutagenic call runs as follows: (Species/Cell Type: Human lymphocytes, Assay Type: Sister-chromatid exchange (SCE) in vitro, Assay Code: SCLT, Evaluation Type: Evaluation B (Post-1980)) “no conclusion”; (Species/Cell Type: Human, Assay Type: Sister-chromatid exchange (SCE) in vitro, Assay Code: SC1T, Evaluation Type: Evaluation B (Post-1980)) “no conclusion”; under setting [6], “active; positive”; under setting [8], “no conclusion”.
For the compound `O=C(O)c1ccccc1NCCc1ccccc1`, for the setting “Species/Cell Type: Mammalian polychromatic erythrocytes, Assay Type: Micronucleus test, chromosome aberrations, Assay Code: MNTT, Evaluation Type: Evaluation B (Post-1980)”, the mutagenic call is given as “no conclusion”.
Turning to `CCCN(CCCCO)N=O`, under setting [9], the mutagenic call was “active; positive”.
For the compound `CCN(CC)C(=O)/C(Cl)=C(\C)OP(=O)(OC)OC`, the mutagenic call runs as follows: under setting [4], “active; positive”; under setting [5], “active; positive”; (Species/Cell Type: Vicia faba, Assay Type: Chromosome aberrations, Assay Code: VIC+, Evaluation Type: Evaluation A (Pre-1980)) “active; positive”.
With `O=C(O)C(=O)c1ccc(Cl)cc1`, the mutagenic call (Species/Cell Type: Nonhuman, Assay Type: Sister-chromatid exchange (SCE) in vitro, Assay Code: SC2-, Evaluation Type: Evaluation B (Post-1980)) is “inactive; negative”.
With `Nc1nc(-c2csc(N)n2)cs1`, the mutagenic call under setting [8] is on record as “no conclusion”.
Regarding `CCN(CC)CC[NH+]([O-])c1ccc(C)c2sc3cc(Cl)ccc3c(=O)c12` (configuration not stated), the mutagenic call under setting [9] was “active; positive”.
Turning to `CCCCI`, the mutagenic call under setting [2] was “no conclusion”.
On to `[Cl-].[Cl-].[Cl-].[Ru+3]`, for which, under setting [10], the mutagenic call was “inactive; negative”.
In the case of `CCN(CCO)CCCNc1c2ccc(Cl)cc2nc2ccc(OC)nc12`, the mutagenic call (Species/Cell Type: Chinese hamster ovary (CHO) cells, Assay Type: Forward gene mutation at the HPRT locus, Assay Code: CHOT, Evaluation Type: Evaluation B (Post-1980)) is given as “no conclusion”.
On to `C/C(=C(\CCOC(=O)c1ccccc1)SC(=O)c1ccccc1)N(C=O)Cc1cnc(C)nc1N`, for which the mutagenic call under setting [10] was “inactive; negative”; the mutagenic call (Species/Cell Type: Escherichia coli WP2, Assay Type: Tryptophan reverse gene mutation, Assay Code: WP2-*, Activation: With metabolic activation, Evaluation Type: Evaluation A (Pre-1980)) is “inactive; negative”; the mutagenic call (Species/Cell Type: Escherichia coli WP2 UVRA, Assay Type: Tryptophan reverse gene mutation, Assay Code: WPU-*, Activation: With metabolic activation, Evaluation Type: Evaluation A (Pre-1980)) is “inactive; negative”.
In the case of `O=C(O)c1ccccc1N=Nc1ccc(N(CCCl)CCCl)cc1`, under setting [3], the mutagenic call was “active; positive”.
Turning to `CCCCN(CCC(=O)O)N=O`, the mutagenic call under setting [7] was “active; positive”.
